This note sets out measurements from US9227957B2, “Pesticidal pyrimidine compounds” (Dow AgroSciences, LLC, priority 2012, dated 2016).

Details in all cases: 120 h, read-out: percent control or mortality rate
Test [1] deals with beet armyworm (Spodoptera exigua). As to the kind of experiment: 128 well diet tray insecticidal bioassay, beet armyworm.
The subject of test [2] is cabbage looper (Trichoplusia ni (Huebner)). As to the kind of experiment: 128 well diet tray insecticidal bioassay, cabbage looper.
Test [3] concerns corn earworm (Helicoverpa zea). As to the kind of experiment: 128 well diet tray insecticidal bioassay, corn earworm.

As for `O=C(Nc1nc(OCC(F)(F)F)cc(OCC(F)(F)F)n1)Nc1sccc1Cl` [Compound 32], the mortality at 50 µg/cm2 in test [1] was in the range of 80 to 100%. Take `CN(C(=O)Nc1nc(OCC(F)(F)F)cc(OCC(F)(F)F)n1)c1cc(C#N)cs1` [Compound 38]: in test [2], the mortality at 50 µg/cm2 lay within 80 to 100%. As for `CC(=O)OCN(C(=O)N(C)c1ccc(C(F)(F)F)s1)c1nc(OCC(F)(F)F)cc(OCC(F)(F)F)n1` [Compound 8], the mortality at 50 µg/cm2 in test [1] and in test [3] was 80 to 100% each time. Consider `CN(C(=O)N(COCc1ccccc1)c1nc(OCC(F)(F)F)cc(OCC(F)(F)F)n1)c1ccc(C(F)(F)F)s1` [Compound 9], for which the mortality at 50 µg/cm2 in test [1] and in test [3] was 80 to 100% throughout. In the case of `Cc1ccsc1N(C)C(=O)Nc1nc(OCC(F)(F)F)cc(OCC(F)(F)F)n1` [Compound 31], the mortality at 50 µg/cm2 in test [2] was < 80%. As for `COCN(C(=O)Nc1ccc(C(F)(F)F)s1)c1nc(OCC(F)(F)F)c(F)c(OCC(F)(F)F)n1` [Compound 15], in test [1], the mortality at 50 µg/cm2 lay in the range of 80 to 100%. `O=C(Nc1nc(OCC(F)(F)F)cc(OCC(F)(F)F)n1)Nc1sc(Cl)c(Cl)c1Cl` [Compound 44]: the mortality at 50 µg/cm2 in test [1] and in test [2] was 80 to 100% throughout. For the compound `Cc1ccc(N(C)C(=O)Nc2nc(OCC(F)(F)F)cc(OCC(F)(F)F)n2)s1` [Compound 39], in test [2], the mortality at 50 µg/cm2 lay within 80 to 100%. For `COCN(C(=O)N(COCc1ccccc1)c1nc(OCC(F)(F)F)cc(OCC(F)(F)F)n1)c1ccc(C(F)(F)F)s1` [Compound 10, 3-(benzyloxymethyl)-3-(4,6-bis(2,2,2-trifluoroethoxy)pyrimidin-2-yl)-1-(methoxymethyl)-1-(5-(trifluoromethyl)thiophen-2-yl)urea], the mortality at 50 µg/cm2 in test [1] and in test [3] was 80 to 100% in each case. Turning to `CN(C(=O)Nc1nc(OCC(F)(F)F)cc(OCC(F)(F)F)n1)c1cc(-c2ccc(Cl)cc2)cs1` [Compound 26], the mortality at 50 µg/cm2 in test [1] and in test [2] was 80 to 100% each time. For the compound `O=C(Nc1nc(OCC(F)(F)F)cc(OCC(F)(F)F)n1)Nc1sccc1Br` [Compound 45], the mortality at 50 µg/cm2 in test [1] was < 80%.

Consider `Cc1csc(N(C)C(=O)Nc2nc(OCC(F)(F)F)cc(OCC(F)(F)F)n2)c1` [Compound 34], for which the mortality at 50 µg/cm2 in test [2] was 80 to 100%. Turning to `CN(C(=O)Nc1nc(OCC(F)(F)F)c(F)c(OCC(F)(F)F)n1)c1ccc(C(F)(F)F)s1` [Compound 13], the mortality at 50 µg/cm2 in test [1] and in test [3] was 80 to 100% in each case. Consider `COc1ccsc1N(C)C(=O)Nc1nc(OCC(F)(F)F)cc(OCC(F)(F)F)n1` [Compound 36], for which the mortality at 50 µg/cm2 in test [2] was < 80%. With `CN(C(=O)Nc1nc(OCC(F)(F)F)cc(OCC(F)(F)F)n1)c1sccc1Cl` [Compound 28], in test [1], the mortality at 50 µg/cm2 is < 80%. In the case of `COc1c(Cl)csc1NC(=O)Nc1nc(OCC(F)(F)F)cc(OCC(F)(F)F)n1` [Compound 25], the mortality at 50 µg/cm2 in test [1] and in test [2] was 80 to 100% each time. `COc1c(Cl)csc1N(C)C(=O)Nc1nc(OCC(F)(F)F)cc(OCC(F)(F)F)n1` [Compound 35]: the mortality at 50 µg/cm2 in test [2] is < 80%. For `COCN(C(=O)N(C)c1ccc(C(F)(F)F)s1)c1nc(OCC(F)(F)F)cc(OCC(F)(F)F)n1` [Compound 7], the mortality at 50 µg/cm2 in test [1] and in test [3] was 80 to 100% in each case. Regarding `CC(=O)OCN(C(=O)N(C)c1ccc(C(F)(F)F)s1)c1nc(OCC(F)(F)F)c(F)c(OCC(F)(F)F)n1` [Compound 19], the mortality at 50 µg/cm2 in test [1] and in test [3] was 80 to 100% each time. As for `O=C(Nc1nc(OCC(F)(F)F)cc(OCC(F)(F)F)n1)Nc1ccc(C(F)(F)F)s1` [Compound 1, 3-(4,6-bis(2,2,2-trifluoroethoxy)pyrimidin-2-yl)-1-(5-(trifluoromethyl)thiophen-2-yl)urea], the mortality at 50 µg/cm2 was < 80% in test [1] and 80 to 100% in test [3].

As for `Cc1ccsc1NC(=O)Nc1nc(OCC(F)(F)F)cc(OCC(F)(F)F)n1` [Compound 37], the mortality at 50 µg/cm2 in test [1] was 80 to 100%; in test [2] it was < 80%.

For the compound `O=C(Nc1nc(OCC(F)(F)F)c(F)c(OCC(F)(F)F)n1)Nc1ccc(C(F)(F)F)s1` [Compound 12], the mortality at 50 µg/cm2 in test [1] and in test [3] was 80 to 100% each time.

`CN(C(=O)Nc1nc(OCC(F)(F)F)cc(OCC(F)(F)F)n1)c1ccc(C(F)(F)F)s1` [Compound 2, 3-(4,6-bis(2,2,2-trifluoroethoxy)pyrimidin-2-yl)-1-methyl-1-(5-(trifluoromethyl)thiophen-2-yl)urea]: the mortality at 50 µg/cm2 in test [1] and in test [3] was 80 to 100% each time. For the compound `COCN(C(=O)Nc1ccc(C(F)(F)F)s1)c1nc(OCC(F)(F)F)cc(OCC(F)(F)F)n1` [Compound 4, 3-(methoxymethyl)-3-(4,6-bis(2,2,2-trifluoroethoxy)pyrimidin-2-yl)-1-(5-(trifluoromethyl)thiophen-2-yl)urea], the mortality at 50 µg/cm2 in test [1] and in test [3] was 80 to 100% in each case. On to `CC(=O)OCN(C(=O)Nc1ccc(C(F)(F)F)s1)c1nc(OCC(F)(F)F)cc(OCC(F)(F)F)n1` [Compound 5], for which the mortality at 50 µg/cm2 in test [1] and in test [3] was 80 to 100% in each case.
